T/C data for 16 molecules are collected here from PubChem BioAssay AID296 (DTP/NCI, 2004).

“And” between values parts separate entries of the source, which are not always exact repeats. Equal entries are not always repeated. Results filed as inconclusive are left out.

In the assay the test system is MX-1 breast xenograft, nude mice, tumor weight T/C. Description: NCI In Vivo Anticancer Drug Screen. Data for tumor model Human Mammary Carcinoma MX-1 Xenograft (intrarenal inoculation) in NU/NU Swiss (nude) mice. Particulars: endpoint: mean tumor weight change, higher = larger tumour. The procedure, abridged: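 Compound dosed to mice with transplantable tumor; vehicle group as control. Endpoint survival or tumour size, reported as T/C.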
Background: A xenograft is tissue or cells of one species grown in another, often human tumour cells in immunodeficient mice.

The mark [1] stands for this setting: dose: 8.0 mg/kg/injection, schedule: Q04DX003 (sc), vehicle: saline.
[2] abbreviates: dose: 16.0 mg/kg/injection, schedule: Q04DX003 (sc), vehicle: saline.
The mark [3] stands for this setting: dose: 32.0 mg/kg/injection, schedule: Q04DX003 (sc), vehicle: saline.
[4] abbreviates: dose: 2400.0 mg/kg/injection, schedule: Q04DX003 (sc), vehicle: suspension in saline.
Setting [5] is: dose: 300.0 mg/kg/injection, schedule: Q04DX003 (sc), vehicle: saline with Tween-80.
The mark [6] stands for this setting: dose: 600.0 mg/kg/injection, schedule: Q04DX003 (sc), vehicle: saline with Tween-80.
[7] abbreviates: dose: 1200.0 mg/kg/injection, schedule: Q04DX003 (sc), vehicle: saline with Tween-80.
Where [8] appears, read: dose: 2400.0 mg/kg/injection, schedule: Q04DX003 (sc), vehicle: saline with Tween-80.

Regarding `CC[C@](O)(C(=O)O)c1cc2n(c(=O)c1CO)Cc1cc3ccccc3nc1-2`, the T/C was 2 % of control under setting [1]; -92 % of control under setting [2]; -89 % of control under setting [3]; -100 % of control (dose: 64.0 mg/kg/injection, schedule: Q04DX003 (sc), vehicle: saline).

Take `O=C1C=CC(n2cc(F)c(=O)[nH]c2=O)O1` (stereo unspecified): the T/C (dose: 75.0 mg/kg/injection, schedule: Q04DX003 (sc), vehicle: Klucel (hydroxypropylcellulose) (HPC)) was 104 % of control.

As for `N[C@H](C(=O)O)[C@@H]1CC(Cl)=NO1`, the T/C is, setting by setting: (dose: 4.0 mg/kg/injection, schedule: Q01DX010 (sc), vehicle: suspension in saline) -87 % of control; (dose: 4.0 mg/kg/injection, schedule: Q02DX005 (sc), vehicle: saline) -33 % of control; (dose: 4.0 mg/kg/injection, schedule: Q04DX003 (sc), vehicle: saline) 52 % of control; (dose: 8.0 mg/kg/injection, schedule: Q01DX010 (sc), vehicle: saline) -100 % of control and -89 % of control and -76 % of control; (dose: 8.0 mg/kg/injection, schedule: Q01DX010 (sc), vehicle: suspension in saline) -86 % of control; (dose: 8.0 mg/kg/injection, schedule: Q02DX005 (sc), vehicle: saline) -59 % of control. For the same molecule, the T/C was 25 % of control under setting [1]; -82 % of control (dose: 16.0 mg/kg/injection, schedule: Q01DX010 (sc), vehicle: suspension in saline); -31 % of control (dose: 16.0 mg/kg/injection, schedule: Q02DX005 (sc), vehicle: saline); 7 % of control under setting [2]; -90 % of control (dose: 32.0 mg/kg/injection, schedule: Q01DX010 (sc), vehicle: suspension in saline); 5 % of control under setting [3].

With `C=C1C(=O)OCC2C(C(=O)O)=CC3C(C)C(C)=CC123` (stereo unspecified), the T/C runs as follows: (dose: 6.25 mg/kg/injection, schedule: Q01DX010 (sc), vehicle: Klucel (hydroxypropylcellulose) (HPC)) 78 % of control; (dose: 12.5 mg/kg/injection, schedule: Q01DX010 (sc), vehicle: Klucel (hydroxypropylcellulose) (HPC)) 113 % of control.

For the molecule `Cc1cc(NS(=O)(=O)c2ccc(N=Nc3cc(N=Nc4ccc(S(=O)(=O)Nc5cc(C)nc(C)n5)cc4)c4c(NC(=O)C(Cl)Cl)cccc4c3OC(=O)C(Cl)Cl)cc2)nc(C)n1` (tested in a mixture with another compound), under setting [4], the T/C was 112 % of control.

Regarding `CCCNC1=C(C)C(=O)C2=C(C1=O)[C@H](COC(N)=O)[C@]1(OC)[C@@H]3N[C@@H]3CN21`, the T/C is, setting by setting: (dose: 6.0 mg/kg/injection, schedule: Q04DX003 (sc), vehicle: suspension in saline) 1 % of control; (dose: 12.0 mg/kg/injection, schedule: Q04DX003 (sc), vehicle: suspension in saline) -83 % of control.

On to `Nc1nc(N)c2c(Cl)c(CNc3ccc(Cl)c(Cl)c3)ccc2n1`, for which the T/C was 80 % of control (dose: 18.75 mg/kg/injection, schedule: Q04DX003 (sc), vehicle: saline with Tween-80); 87 % of control (dose: 37.5 mg/kg/injection, schedule: Q04DX003 (sc), vehicle: saline with Tween-80); 93 % of control (dose: 75.0 mg/kg/injection, schedule: Q04DX003 (sc), vehicle: saline with Tween-80); 111 % of control (dose: 150.0 mg/kg/injection, schedule: Q04DX003 (sc), vehicle: saline with Tween-80).

On to `Cc1c(-c2ccc(C3CCCCC3)cc2)nc2ccc(F)cc2c1C(=O)O`, for which the T/C was 86 % of control (dose: 300.0 mg/kg/injection, schedule: Q04DX003 (sc), vehicle: Klucel (hydroxypropylcellulose) (HPC)); 75 % of control (dose: 600.0 mg/kg/injection, schedule: Q04DX003 (sc), vehicle: Klucel (hydroxypropylcellulose) (HPC)); 80 % of control (dose: 1200.0 mg/kg/injection, schedule: Q04DX003 (sc), vehicle: Klucel (hydroxypropylcellulose) (HPC)); 96 % of control (dose: 2400.0 mg/kg/injection, schedule: Q04DX003 (sc), vehicle: Klucel (hydroxypropylcellulose) (HPC)).

Regarding `O=C1NC(c2ccccc2)N=C2Oc3ccccc3C=C12` (stereo unspecified), the T/C is, setting by setting: (dose: 50.0 mg/kg/injection, schedule: Q01DX008 (sc), vehicle: saline with Tween-80) 57 % of control; (dose: 100.0 mg/kg/injection, schedule: Q01DX008 (sc), vehicle: saline with Tween-80) 71 % of control; (dose: 200.0 mg/kg/injection, schedule: Q01DX008 (sc), vehicle: saline with Tween-80) 56 % of control; (dose: 400.0 mg/kg/injection, schedule: Q01DX008 (sc), vehicle: saline with Tween-80) 80 % of control.

For `COc1ccc2c(NCCCCCCNc3c4ccccc4nc4cc(OC)ccc34)c3ccccc3nc2c1`, the T/C is, setting by setting: (dose: 1.25 mg/kg/injection, schedule: Q01DX010 (sc), vehicle: lactic acid) 81 % of control; (dose: 2.5 mg/kg/injection, schedule: Q01DX010 (sc), vehicle: lactic acid) 165 % of control; (dose: 5.0 mg/kg/injection, schedule: Q01DX010 (sc), vehicle: lactic acid) 79 % of control; (dose: 10.0 mg/kg/injection, schedule: Q01DX010 (sc), vehicle: lactic acid) 92 % of control.

As to `CCOC(=O)C1=C(C#N)C2(CCC(OCc3ccccc3)CC2)C(=O)O1` (stereo unspecified), the T/C by setting is: (dose: 200.0 mg/kg/injection, schedule: Q04DX003 (sc), vehicle: suspension in saline) 81 % of control; (dose: 400.0 mg/kg/injection, schedule: Q04DX003 (sc), vehicle: suspension in saline) 119 % of control; (dose: 800.0 mg/kg/injection, schedule: Q04DX003 (sc), vehicle: suspension in saline) 52 % of control; (dose: 1600.0 mg/kg/injection, schedule: Q04DX003 (sc), vehicle: suspension in saline) 62 % of control.

As to `CC1(C)CC2(C)OC2C2(C1)N=NC(=Nc1ccccc1)O2` (stereo unspecified), the T/C is, setting by setting: under setting [5], 79 % of control; under setting [6], 81 % of control; under setting [7], 88 % of control; under setting [8], 81 % of control.

As to `Cc1c2cc(Cl)c3ccccc3c2c[n+]2ccccc12`, the T/C reads like this: under setting [5], 82 % of control; under setting [6], 67 % of control; under setting [7], 44 % of control; under setting [8], 76 % of control.

Consider `O=C(O)CC(NC(=O)CP(=O)(O)O)C(=O)O.[NH-]C1CCCCC1[NH-].[Pt+2]` (stereo unspecified), for which the T/C runs as follows: (dose: 12.5 mg/kg/injection, schedule: Q04DX003 (sc), vehicle: dextrose) 175 % of control; (dose: 25.0 mg/kg/injection, schedule: Q04DX003 (sc), vehicle: dextrose) 43 % of control and 62 % of control; (dose: 100.0 mg/kg/injection, schedule: Q04DX003 (sc), vehicle: dextrose) 12 % of control.

Regarding `CC1=CC(=NN=c2cc(C)n([O-])c(C)c2)C=C(C)[N+]1=O`, the T/C was 90 % of control (dose: 300.0 mg/kg/injection, schedule: Q04DX003 (sc), vehicle: suspension in saline); 36 % of control (dose: 600.0 mg/kg/injection, schedule: Q04DX003 (sc), vehicle: suspension in saline); 112 % of control (dose: 1200.0 mg/kg/injection, schedule: Q04DX003 (sc), vehicle: suspension in saline); 32 % of control under setting [4].

For the molecule `Nc1ncnc2c1ncn2C1OC(CO)C(O)C1O` (stereo unspecified), the T/C was 84 % of control (dose: 38.0 mg/kg/injection, schedule: Q04DX003 (sc), vehicle: saline); 120 % of control (dose: 100.0 mg/kg/injection, schedule: Q04DX003 (sc), vehicle: saline); 100 % of control (dose: 200.0 mg/kg/injection, schedule: Q04DX003 (sc), vehicle: saline with Tween-80); 72 % of control and 85 % of control (dose: 200.0 mg/kg/injection, schedule: Q04DX003 (sc), vehicle: saline); 84 % of control (dose: 400.0 mg/kg/injection, schedule: Q04DX003 (sc), vehicle: saline with Tween-80); 91 % of control (dose: 400.0 mg/kg/injection, schedule: Q04DX003 (sc), vehicle: saline). Besides, the T/C (dose: 800.0 mg/kg/injection, schedule: Q04DX003 (sc), vehicle: saline with Tween-80) is 217 % of control; the T/C (dose: 1600.0 mg/kg/injection, schedule: Q04DX003 (sc), vehicle: saline with Tween-80) was 104 % of control; the T/C (dose: 1600.0 mg/kg/injection, schedule: Q04DX003 (sc), vehicle: saline) is 52 % of control.
